The numbers were not newly measured in patent US20250170148A1, “NEUROACTIVE STEROIDS FOR TREATMENT OF GASTROINTESTINAL DISEASES OR CONDITIONS” (Sage Therapeutics, Inc., priority 2022, published 2025), which cites them from elsewhere.

“Also recorded” adds a separate entry of the source. Read-outs that look alike come from different tables or passages of the source.

The subject of data set [1] is patients with major depressive disorder. The conditions noted are these: meta-analysis; for rate of gastrointestinal adverse reactions compared to placebo: 15 most commonly used antidepressants in MDD; for gastrointestinal tolerability among antidepressants: patients with MDD.

In the case of `COc1ccc2cccc(CCNC(C)=O)c2c1` [agomelatine], the “rate of gastrointestinal adverse reactions compared to placebo” value (“rate … compared to placebo” for short) in data set [1] is reported as “higher rates of gastrointestinal adverse reactions compared to placebo”.
In the case of `CC(NC(C)(C)C)C(=O)c1cccc(Cl)c1` (centres unmarked) [bupropion], the “rate … compared to placebo” value in data set [1] is recorded as “higher rates of gastrointestinal adverse reactions compared to placebo”.
On to `CN(C)CCCC1(c2ccc(F)cc2)OCc2cc(C#N)ccc21` (centres unmarked) [citalopram], for which, in data set [1], the “rate … compared to placebo” value is listed as “higher rates of gastrointestinal adverse reactions compared to placebo”.
`CN(C)CC(c1ccc(O)cc1)C1(O)CCCCC1` (centres unmarked) [desvenlafaxine]: the “rate … compared to placebo” value in data set [1] is on record as “higher rates of gastrointestinal adverse reactions compared to placebo”.
As to `CNCC[C@H](Oc1cccc2ccccc12)c1cccs1` [duloxetine], in data set [1], the “rate … compared to placebo” value was “higher rates of gastrointestinal adverse reactions compared to placebo”.
As for `CN(C)CCC[C@@]1(c2ccc(F)cc2)OCc2cc(C#N)ccc21` [escitalopram], in data set [1], the “rate … compared to placebo” value is “higher rates of gastrointestinal adverse reactions compared to placebo”. Besides, the “gastrointestinal tolerability among antidepressants” value in data set [1] is on record as “least tolerated antidepressants on the gastrointestinal tract”; in data set [1] (listed as Escitalopram), “least tolerated antidepressants on the GI tract”.
In the case of `CNCCC(Oc1ccc(C(F)(F)F)cc1)c1ccccc1` (centres unmarked) [fluoxetine], in data set [1], the “rate … compared to placebo” value is “higher rates of gastrointestinal adverse reactions compared to placebo”.
For the molecule `COCCCC/C(=N\OCCN)c1ccc(C(F)(F)F)cc1` [fluvoxamine], the “rate … compared to placebo” value in data set [1] is listed as “higher rates of gastrointestinal adverse reactions compared to placebo”.
As for `CCN(CC)C(=O)[C@@]1(c2ccccc2)C[C@H]1CN` [levomilnacipran], the “rate … compared to placebo” value in data set [1] was “higher rates of gastrointestinal adverse reactions compared to placebo”.
For `CN1CCN2c3ncccc3Cc3ccccc3C2C1` (centres unmarked) [mirtazapine], in data set [1], the “rate … compared to placebo” value is recorded as “higher rates of gastrointestinal adverse reactions compared to placebo”.
Take `Fc1ccc([C@@H]2CCNC[C@H]2COc2ccc3c(c2)OCO3)cc1` [paroxetine]: in data set [1], the “rate … compared to placebo” value is “higher rates of gastrointestinal adverse reactions compared to placebo”.
Consider `CCOc1ccccc1OC(c1ccccc1)C1CNCCO1` (centres unmarked) [reboxetine], for which the “rate … compared to placebo” value in data set [1] is listed as “higher rates of gastrointestinal adverse reactions compared to placebo”.
Consider `CN[C@H]1CC[C@@H](c2ccc(Cl)c(Cl)c2)c2ccccc21` [sertraline], for which the incidence of diarrhea entry (compared to other SSRIs and venlafaxine) was “higher incidence of diarrhea”. In data set [1], the “rate … compared to placebo” value is recorded as “higher rates of gastrointestinal adverse reactions compared to placebo” and the “gastrointestinal tolerability among antidepressants” value was “least tolerated antidepressants on the gastrointestinal tract; also recorded: least tolerated antidepressants on the GI tract”.
For the molecule `COc1ccc(C(CN(C)C)C2(O)CCCCC2)cc1` (centres unmarked) [venlafaxine], the “rates of nausea and vomiting” value (compared to SSRIs and duloxetine) is “higher rates of nausea and vomiting”. In addition, the “rate … compared to placebo” value in data set [1] was “higher rates of gastrointestinal adverse reactions compared to placebo”.
On to `Cc1ccc(Sc2ccccc2N2CCNCC2)c(C)c1` [vortioxetine], for which, in data set [1], the “rate … compared to placebo” value is reported as “higher rates of gastrointestinal adverse reactions compared to placebo”.
